This is an account of results in ChEMBL document CHEMBL1909046, “DrugMatrix in vitro pharmacology data”.

Experiment [1] addresses T1, 3-hydroxy-3-methylglutaryl-coenzyme A reductase (Homo sapiens, UniProt P04035).
T1 sequence (P04035 whole entry): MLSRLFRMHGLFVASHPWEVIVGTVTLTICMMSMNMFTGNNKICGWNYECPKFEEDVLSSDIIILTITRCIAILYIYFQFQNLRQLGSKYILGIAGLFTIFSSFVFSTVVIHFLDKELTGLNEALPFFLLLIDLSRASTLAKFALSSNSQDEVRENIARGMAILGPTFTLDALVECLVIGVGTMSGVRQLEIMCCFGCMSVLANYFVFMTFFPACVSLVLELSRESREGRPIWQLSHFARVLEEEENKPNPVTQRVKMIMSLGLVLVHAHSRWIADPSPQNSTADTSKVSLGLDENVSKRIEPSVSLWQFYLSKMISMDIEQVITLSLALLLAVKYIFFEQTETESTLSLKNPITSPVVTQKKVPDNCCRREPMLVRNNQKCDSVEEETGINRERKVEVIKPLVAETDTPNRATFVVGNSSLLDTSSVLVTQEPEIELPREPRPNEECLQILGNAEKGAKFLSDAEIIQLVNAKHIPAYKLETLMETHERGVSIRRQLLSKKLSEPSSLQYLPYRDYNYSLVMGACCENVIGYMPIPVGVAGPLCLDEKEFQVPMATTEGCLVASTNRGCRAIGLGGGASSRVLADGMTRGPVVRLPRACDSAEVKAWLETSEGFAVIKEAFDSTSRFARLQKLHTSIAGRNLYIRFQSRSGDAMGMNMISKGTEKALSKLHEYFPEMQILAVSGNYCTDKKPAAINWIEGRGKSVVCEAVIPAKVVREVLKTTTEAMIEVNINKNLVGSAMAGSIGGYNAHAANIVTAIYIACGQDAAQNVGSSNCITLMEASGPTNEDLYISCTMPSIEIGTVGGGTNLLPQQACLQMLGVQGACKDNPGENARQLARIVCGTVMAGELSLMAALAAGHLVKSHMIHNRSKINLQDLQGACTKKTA
Details: species or system Escherichia coli.

In another experiment the target is T2, Interstitial collagenase (Homo sapiens, UniProt P03956).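 Also: MMP-1 enzyme inhibition assay using a peptide substrate; in other assays of this panel Not Active means under 50% inhibition at 10 µM.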
T2 sequence (P03956 whole entry): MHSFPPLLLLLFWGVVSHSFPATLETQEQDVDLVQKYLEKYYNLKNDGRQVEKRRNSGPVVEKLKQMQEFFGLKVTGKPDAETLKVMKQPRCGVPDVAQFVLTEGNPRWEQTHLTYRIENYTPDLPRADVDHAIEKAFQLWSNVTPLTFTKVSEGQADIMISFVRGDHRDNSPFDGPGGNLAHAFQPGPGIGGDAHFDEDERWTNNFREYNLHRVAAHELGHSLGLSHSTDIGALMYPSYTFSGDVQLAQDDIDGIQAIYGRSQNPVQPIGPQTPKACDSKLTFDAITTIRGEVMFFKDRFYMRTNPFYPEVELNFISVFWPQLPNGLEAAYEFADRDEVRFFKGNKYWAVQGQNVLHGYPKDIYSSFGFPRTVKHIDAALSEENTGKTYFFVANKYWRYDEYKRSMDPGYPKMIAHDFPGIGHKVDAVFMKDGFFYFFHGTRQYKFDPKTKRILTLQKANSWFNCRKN
It counts as tissue-based, Rheumatoid synovial fibroblasts.

The target of experiment [2] is Mitogen-activated protein kinase 1 (Homo sapiens, UniProt P28482). Put plainly: DRUGMATRIX: Protein Serine/Threonine Kinase, ERK2 enzyme inhibition (substrate: Myelin Basic Protein). Particulars: Not Active = under 50% inhibition at 10 µM. Details: species or system Escherichia coli.
In experiment [3] the target is Platelet-activating factor receptor (Homo sapiens, UniProt P25105). Kind of experiment: biochemical. In kind it is tissue-based. Particulars: platelet. Also: in other assays of this panel Not Active means under 50% inhibition at 10 µM.
Experiment [4] has as its target T3, Alpha-1D adrenergic receptor (Homo sapiens, UniProt P25100). Also: in other assays of this panel Not Active means under 50% inhibition at 10 µM.
T3 sequence (P25100 whole entry): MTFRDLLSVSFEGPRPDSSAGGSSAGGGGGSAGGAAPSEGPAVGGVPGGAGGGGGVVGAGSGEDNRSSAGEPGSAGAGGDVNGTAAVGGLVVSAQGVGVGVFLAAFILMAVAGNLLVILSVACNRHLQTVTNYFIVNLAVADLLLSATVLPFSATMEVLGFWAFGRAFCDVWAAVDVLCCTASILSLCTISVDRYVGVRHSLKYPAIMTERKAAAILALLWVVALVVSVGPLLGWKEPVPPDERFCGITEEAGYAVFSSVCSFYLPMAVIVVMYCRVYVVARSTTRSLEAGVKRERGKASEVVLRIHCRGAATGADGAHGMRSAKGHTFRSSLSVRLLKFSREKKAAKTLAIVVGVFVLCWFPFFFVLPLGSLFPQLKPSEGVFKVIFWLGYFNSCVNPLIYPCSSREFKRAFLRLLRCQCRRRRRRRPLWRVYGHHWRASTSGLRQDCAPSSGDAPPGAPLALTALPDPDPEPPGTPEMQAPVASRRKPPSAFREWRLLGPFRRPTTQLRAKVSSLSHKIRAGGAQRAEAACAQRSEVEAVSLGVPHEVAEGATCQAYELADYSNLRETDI
It counts as cell membranes, HEK293, Membrane.

The nature of experiment [5]: DRUGMATRIX: Glutamate, NMDA, Agonism radioligand binding (ligand: [3H] CGP-39653). It counts as cell membranes, Rattus norvegicus, Wistar, Cerebral cortex, Membrane. Conditions: Not Active = under 50% inhibition at 10 µM.
For experiment [6], the target named is Prostaglandin G/H synthase 1 (Homo sapiens, UniProt P23219). Put plainly: biochemical. In kind it is tissue-based, Platelet. Conditions: platelet.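 Also: inhibition of COX-1 enzyme activity, with arachidonic acid supplied as substrate; in other assays of this panel Not Active means under 50% inhibition at 10 µM.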
Experiment [7] can be described thus: DRUGMATRIX: Phosphodiesterase PDE4 enzyme inhibition (substrate: [3H]cAMP + cAMP). Particulars: u-937, Not Active = under 50% inhibition at 10 µM.
Experiment [8] can be described thus: DRUGMATRIX: Calcium Channel Type L, Phenylalkylamine radioligand binding (ligand: [3H] (-)-Desmethoxyverapamil (D-888)). Conditions: Not Active = under 50% inhibition at 10 µM. It counts as cell membranes, Rattus norvegicus, Wistar, Brain, Membrane.
A further experiment addresses Melanocortin receptor 3 (Homo sapiens, UniProt P41968). In kind it is cell membranes, Membrane. Conditions: hek293.
A short description of experiment [9]: DRUGMATRIX: Glutamate, NMDA, Phencyclidine radioligand binding (ligand: [3H] TCP). In kind it is cell membranes, Rattus norvegicus, Wistar, Cerebral cortex, Membrane. Particulars: Not Active = under 50% inhibition at 10 µM.
The target in the next experiment is T4, Adenosine receptor A1 (Homo sapiens, UniProt P30542).
T4 sequence (P30542 whole entry): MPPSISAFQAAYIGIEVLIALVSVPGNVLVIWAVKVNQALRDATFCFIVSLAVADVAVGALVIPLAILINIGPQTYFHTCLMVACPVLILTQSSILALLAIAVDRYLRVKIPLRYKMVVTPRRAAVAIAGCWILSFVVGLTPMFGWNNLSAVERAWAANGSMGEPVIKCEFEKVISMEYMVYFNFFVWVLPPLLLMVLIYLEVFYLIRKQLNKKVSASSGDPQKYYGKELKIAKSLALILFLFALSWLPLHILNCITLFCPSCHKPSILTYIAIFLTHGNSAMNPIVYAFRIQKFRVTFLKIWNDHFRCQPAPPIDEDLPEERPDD
In kind it is cell membranes, CHO, Membrane.

For the next experiment, the target named is D(3) dopamine receptor (Homo sapiens, UniProt P35462). Put plainly: DRUGMATRIX: Dopamine D3 radioligand binding (ligand: [3H] Spiperone). It counts as cell membranes, CHO, Membrane. Conditions: cho.
D(3) dopamine receptor, sequence (P35462 whole entry): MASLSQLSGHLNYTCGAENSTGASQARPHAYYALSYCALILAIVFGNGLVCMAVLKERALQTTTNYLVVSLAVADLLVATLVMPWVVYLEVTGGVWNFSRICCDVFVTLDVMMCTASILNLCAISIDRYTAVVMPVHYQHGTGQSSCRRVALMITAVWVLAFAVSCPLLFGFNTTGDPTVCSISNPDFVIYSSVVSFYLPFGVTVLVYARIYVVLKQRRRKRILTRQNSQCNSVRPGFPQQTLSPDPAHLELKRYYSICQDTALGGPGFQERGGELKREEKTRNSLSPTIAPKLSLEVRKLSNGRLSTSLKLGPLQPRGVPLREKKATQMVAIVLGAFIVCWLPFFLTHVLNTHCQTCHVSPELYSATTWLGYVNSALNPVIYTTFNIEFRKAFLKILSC

Mitogen-activated protein kinase 1, sequence (P28482 whole entry): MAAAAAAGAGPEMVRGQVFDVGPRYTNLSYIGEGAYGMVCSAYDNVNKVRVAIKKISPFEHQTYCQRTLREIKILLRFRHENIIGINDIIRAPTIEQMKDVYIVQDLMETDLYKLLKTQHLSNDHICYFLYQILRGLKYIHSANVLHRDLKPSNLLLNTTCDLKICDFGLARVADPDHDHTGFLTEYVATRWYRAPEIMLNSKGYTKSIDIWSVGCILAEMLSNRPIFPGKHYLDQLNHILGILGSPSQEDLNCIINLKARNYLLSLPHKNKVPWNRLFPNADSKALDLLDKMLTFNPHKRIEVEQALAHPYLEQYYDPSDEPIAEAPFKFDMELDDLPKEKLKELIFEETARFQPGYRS
Prostaglandin G/H synthase 1, sequence (P23219 whole entry): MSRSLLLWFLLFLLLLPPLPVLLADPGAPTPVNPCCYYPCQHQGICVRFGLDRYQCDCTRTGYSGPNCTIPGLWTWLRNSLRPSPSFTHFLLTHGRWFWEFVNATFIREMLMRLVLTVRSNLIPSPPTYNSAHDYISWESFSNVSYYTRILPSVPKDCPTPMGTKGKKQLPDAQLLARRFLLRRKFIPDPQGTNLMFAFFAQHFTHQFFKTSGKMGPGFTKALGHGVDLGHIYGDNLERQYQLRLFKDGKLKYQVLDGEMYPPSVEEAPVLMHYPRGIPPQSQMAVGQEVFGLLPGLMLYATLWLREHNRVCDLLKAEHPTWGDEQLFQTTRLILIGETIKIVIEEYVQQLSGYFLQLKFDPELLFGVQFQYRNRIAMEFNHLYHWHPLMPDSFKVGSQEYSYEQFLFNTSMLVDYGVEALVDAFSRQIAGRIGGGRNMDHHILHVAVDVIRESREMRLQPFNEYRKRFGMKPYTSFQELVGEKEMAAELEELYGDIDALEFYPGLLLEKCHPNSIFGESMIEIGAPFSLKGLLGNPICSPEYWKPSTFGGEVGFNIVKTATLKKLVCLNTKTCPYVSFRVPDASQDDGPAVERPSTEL
Platelet-activating factor receptor, sequence (P25105 whole entry): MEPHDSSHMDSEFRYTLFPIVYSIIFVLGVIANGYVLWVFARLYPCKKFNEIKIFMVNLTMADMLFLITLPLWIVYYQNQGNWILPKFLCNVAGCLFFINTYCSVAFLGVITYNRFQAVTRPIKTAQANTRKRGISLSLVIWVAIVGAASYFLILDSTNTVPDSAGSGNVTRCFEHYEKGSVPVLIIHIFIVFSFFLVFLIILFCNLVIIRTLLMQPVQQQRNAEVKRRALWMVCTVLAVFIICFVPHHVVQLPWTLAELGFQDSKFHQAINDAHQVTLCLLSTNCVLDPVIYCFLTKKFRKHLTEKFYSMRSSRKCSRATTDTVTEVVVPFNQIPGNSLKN
Melanocortin receptor 3, sequence (P41968 whole entry): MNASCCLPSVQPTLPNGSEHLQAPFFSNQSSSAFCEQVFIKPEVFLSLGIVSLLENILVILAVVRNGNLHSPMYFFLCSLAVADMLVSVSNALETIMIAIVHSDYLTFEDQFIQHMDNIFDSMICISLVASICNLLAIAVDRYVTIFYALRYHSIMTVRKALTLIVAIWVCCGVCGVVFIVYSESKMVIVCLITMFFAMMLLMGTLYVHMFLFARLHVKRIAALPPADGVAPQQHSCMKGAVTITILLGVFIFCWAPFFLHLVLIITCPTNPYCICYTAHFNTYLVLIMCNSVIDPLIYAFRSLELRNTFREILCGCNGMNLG

Turning to `O=c1cc(-c2ccccc2)oc2c1ccc1ccccc12` [ALPHA-NAPHTHOFLAVONE], the IC50 result (in experiment [1]; on Interstitial collagenase; in experiment [2]; in [3]; in experiment [4] (hek293); in [5]) was “Not Active” throughout. Further, the IC50 result is “Not Active” in [6]; 2.92 µM in experiment [7] (read-out: IC50); “Not Active” in experiment [8]; “Not Active” against Melanocortin receptor 3; “Not Active” in [9]; 1.13 µM on Adenosine receptor A1 (read-out: IC50). Also, the half-maximal inhibitory concentration (IC50) result on D(3) dopamine receptor is listed as “Not Active”. For the same molecule, the inhibitory constant (Ki) result in experiment [5] was “Not Active”; in experiment [8], “Not Active”; in experiment [9], “Not Active”; on Adenosine receptor A1 (read-out: Ki), 0.661 µM.
For the molecule `CN(C)CCCC1(c2ccc(F)cc2)OCc2cc(C#N)ccc21` (stereo not given) [CITALOPRAM], the IC50 result was “Not Active” in [1]; “Not Active” against Interstitial collagenase; “Not Active” in [2]; “Not Active” in experiment [3]; 3.29 µM in experiment [4] (read-out: IC50); “Not Active” in [5]. For the same molecule, the IC50 entry in experiment [6] was “Not Active”; in [7], “Not Active”; in [8] (read-out: IC50) it was 1.02 µM; against Melanocortin receptor 3, “Not Active”; in experiment [9], “Not Active”; against Adenosine receptor A1 (cho) it was “Not Active”. Besides, the IC50 result at D(3) dopamine receptor is “Not Active”. Besides, the inhibition constant (Ki) is 1.62 µM in [4] (read-out: Ki); “Not Active” in [5]; “Not Active” in [7]; 0.996 µM in [8] (read-out: Ki); “Not Active” in experiment [9].
